Measurements published in US6096930A, “Herbicidal cyclohexane-1,3-dione derivatives and their preparation process” (Korea Research Institute of Chemical Technology, priority 1994, dated 2000).
Where two headings read alike, the source gives them in different places.

Assays:
Assay in all cases: Herbicidal activity for paddy test
Format in all cases: in vivo
[1] = tested on: ECHOR; conditions: for pest or weed control at 2 g/ha: 0.002 kg/ha; for pest or weed control at 8 g/ha: 0.008 kg/ha; for pest or weed control at 31 g/ha: 0.031 kg/ha; for pest or weed control at 125 g/ha: 0.125 kg/ha; for pest or weed control at 500 g/ha: 0.500 kg/ha
Summary of the method: (§1)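 Scores are visual estimates of percent control (0, no effect; 100, plants completely killed), recorded on species planted in furrows in sterilized sandy loam held in 115 cm^2 paddy pots.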

[2] = tested on: MOOVA; conditions: for pest or weed control at 2 g/ha: 0.002 kg/ha; for pest or weed control at 8 g/ha: 0.008 kg/ha; for pest or weed control at 31 g/ha: 0.031 kg/ha; for pest or weed control at 125 g/ha: 0.125 kg/ha; for pest or weed control at 500 g/ha: 0.500 kg/ha
Summary of the method: as §1

[3] = tested on: ORYSA; conditions: for plant injury at 2 g/ha: 0.002 kg/ha; for plant injury at 8 g/ha: 0.008 kg/ha; for plant injury at 31 g/ha: 0.031 kg/ha; for plant injury at 125 g/ha: 0.125 kg/ha; for plant injury at 500 g/ha: 0.500 kg/ha
Summary of the method: as §1

[4] = tested on: SAGPY; conditions: for pest or weed control at 2 g/ha: 0.002 kg/ha; for pest or weed control at 8 g/ha: 0.008 kg/ha; for pest or weed control at 31 g/ha: 0.031 kg/ha; for pest or weed control at 125 g/ha: 0.125 kg/ha; for pest or weed control at 500 g/ha: 0.500 kg/ha
Summary of the method: as §1

[5] = tested on: SCPJU; conditions: for pest or weed control at 2 g/ha: 0.002 kg/ha; for pest or weed control at 8 g/ha: 0.008 kg/ha; for pest or weed control at 31 g/ha: 0.031 kg/ha; for pest or weed control at 125 g/ha: 0.125 kg/ha; for pest or weed control at 500 g/ha: 0.500 kg/ha
Summary of the method: as §1

[6] = 3 Leaf, read-out: Herbicidal activity, ORYSA (3 Leaf)
[7] = seed, read-out: Herbicidal activity, ORYSA (seed)

Row | Structure (SMILES) | pest or weed control at 2 g/ha [1] [%] | pest or weed control at 8 g/ha [1] [%] | pest or weed control at 31 g/ha [1] [%] | pest or weed control at 125 g/ha [1] [%] | pest or weed control at 500 g/ha [1] [%] | pest or weed control at 2 g/ha [2] [%] | pest or weed control at 8 g/ha [2] [%] | pest or weed control at 31 g/ha [2] [%] | pest or weed control at 125 g/ha [2] [%] | pest or weed control at 500 g/ha [2] [%] | plant injury at 2 g/ha [3, 6] [%] | plant injury at 8 g/ha [3, 6] [%] | plant injury at 31 g/ha [3, 6] [%] | plant injury at 125 g/ha [3, 6] [%] | plant injury at 500 g/ha [3, 6] [%] | plant injury at 2 g/ha [3, 7] [%] | plant injury at 8 g/ha [3, 7] [%] | plant injury at 31 g/ha [3, 7] [%] | plant injury at 125 g/ha [3, 7] [%] | plant injury at 500 g/ha [3, 7] [%] | also measured
1 | CCCC(=NOC)C1=C(O)CC(c2c(C)c(C)c3c(c2Cl)CC(C)(C)C3)CC1=O (stereo not drawn) [Compound 42] | 0 | 0 | 80 | 100 | 100 | 0 | 0 | 0 | 0 | 0 | 0 | 0 | 0 | 0 | 0 | 0 | 0 | 20 | 100 | 100 | pest or weed control at 2 g/ha [4]: 0%; pest or weed control at 8 g/ha [4]: 0%; pest or weed control at 31 g/ha [4]: 0%; pest or weed control at 125 g/ha [4]: 0%; pest or weed control at 500 g/ha [4]: 0%; pest or weed control at 2 g/ha [5]: 0%; pest or weed control at 8 g/ha [5]: 0%; pest or weed control at 31 g/ha [5]: 0%; pest or weed control at 125 g/ha [5]: 0%; pest or weed control at 500 g/ha [5]: 0%
2 | CCCC(=NOC)C1=C(O)CC(c2c(C)c(C)c3c(c2C)CC(C)(CC)C3)CC1=O (stereo not drawn) [Compound 16] | 0 | 30 | 70 | 100 | 100 | 0 | 0 | 30 | 50 | 50 | 0 | 0 | 0 | 0 | 30 | 0 | 0 | 30 | 100 | 100 | pest or weed control at 2 g/ha [4]: 0%; pest or weed control at 8 g/ha [4]: 0%; pest or weed control at 31 g/ha [4]: 0%; pest or weed control at 125 g/ha [4]: 0%; pest or weed control at 500 g/ha [4]: 30%; pest or weed control at 2 g/ha [5]: 0%; pest or weed control at 8 g/ha [5]: 0%; pest or weed control at 31 g/ha [5]: 0%; pest or weed control at 125 g/ha [5]: 0%; pest or weed control at 500 g/ha [5]: 0%
3 | CCON=C(CC)C1=C(O)CC(c2c(C)c3c(c(C)c2Cl)CC(C)(C)C3)CC1=O (stereo not drawn) [Compound 22] | 0 | 95 | 100 | 100 | 100 | 0 | 0 | 0 | 0 | 60 | 0 | 0 | 0 | 20 | 100 | 0 | 0 | 100 | 100 | 100 | pest or weed control at 2 g/ha [4]: 0%; pest or weed control at 8 g/ha [4]: 0%; pest or weed control at 31 g/ha [4]: 0%; pest or weed control at 125 g/ha [4]: 0%; pest or weed control at 500 g/ha [4]: 0%; pest or weed control at 2 g/ha [5]: 0%; pest or weed control at 8 g/ha [5]: 0%; pest or weed control at 31 g/ha [5]: 0%; pest or weed control at 125 g/ha [5]: 0%; pest or weed control at 500 g/ha [5]: 0%
4 | CCC(=NOCC=CCl)C1=C(O)CC(c2c(C)c(C)c3c(c2C)CC(C)(C)C3)CC1=O (stereo not drawn) [Compound 4] | 0 | 100 | 100 | 100 | 100 | 0 | 0 | 0 | 0 | 0 | 0 | 0 | 0 | 10 | 40 | 0 | 0 | 100 | 100 | 100 | pest or weed control at 2 g/ha [4]: 0%; pest or weed control at 8 g/ha [4]: 0%; pest or weed control at 31 g/ha [4]: 0%; pest or weed control at 125 g/ha [4]: 0%; pest or weed control at 500 g/ha [4]: 50%; pest or weed control at 2 g/ha [5]: 0%; pest or weed control at 8 g/ha [5]: 0%; pest or weed control at 31 g/ha [5]: 0%; pest or weed control at 125 g/ha [5]: 0%; pest or weed control at 500 g/ha [5]: 0%
5 | CCCC(=NOCC=CCl)C1=C(O)CC(c2c(C)c(C)c3c(c2C)CC(C)(CC)C3)CC1=O (stereo not drawn) [Compound 19] | 0 | 50 | 80 | 100 | 100 | 0 | 0 | 0 | 0 | 0 | 0 | 0 | 0 | 0 | 0 | 0 | 0 | 0 | 0 | 30 | pest or weed control at 2 g/ha [4]: 0%; pest or weed control at 8 g/ha [4]: 0%; pest or weed control at 31 g/ha [4]: 0%; pest or weed control at 125 g/ha [4]: 0%; pest or weed control at 500 g/ha [4]: 0%; pest or weed control at 2 g/ha [5]: 0%; pest or weed control at 8 g/ha [5]: 0%; pest or weed control at 31 g/ha [5]: 0%; pest or weed control at 125 g/ha [5]: 0%; pest or weed control at 500 g/ha [5]: 0%
6 | CCCC(=NOC)C1=C(O)CC(c2c(C)c3c(c(C)c2Cl)CC(C)(C)C3)CC1=O (stereo not drawn) [Compound 25] | 0 | 0 | 100 | 100 | 100 | 0 | 0 | 0 | 0 | 0 | 0 | 0 | 0 | 0 | 50 | 0 | 0 | 60 | 100 | 100 | pest or weed control at 2 g/ha [4]: 0%; pest or weed control at 8 g/ha [4]: 0%; pest or weed control at 31 g/ha [4]: 0%; pest or weed control at 125 g/ha [4]: 0%; pest or weed control at 500 g/ha [4]: 0%; pest or weed control at 2 g/ha [5]: 0%; pest or weed control at 8 g/ha [5]: 0%; pest or weed control at 31 g/ha [5]: 0%; pest or weed control at 125 g/ha [5]: 0%; pest or weed control at 500 g/ha [5]: 0%
